Measurements reported in patent EP4737442A1, “DIAMINOVINYLIDENE DERIVATIVE OR SALT THEREOF, PEST CONTROL AGENT CONTAINING SAID COMPOUND, AND METHODS FOR USING THESE” (ADEKA CORPORATION, priority 2023, dated 2025).

Experiments:
[1] = system: Dirofilaria immitis; assay: Effect test on Dirofilaria immitis (larval motility inhibition); conditions: 168 h, read-out: motility inhibition rate
[2] = system: Plutella xylostella; assay: Insecticidal test against Plutella xylostella; conditions: in Brassica rapa, 144 h, read-out: corrected mortality (%), assessment
Description: Six days after the immersion in the drug solution, the number of surviving insects was examined.

[3] = system: Laodelphax striatellus; assay: Insecticidal test against Laodelphax striatellus; conditions: in Oryza sativa, 192 h, read-out: corrected mortality (%), assessment
[4] = system: Frankliniella occidentalis; assay: Insecticidal test against Frankliniella occidentalis; conditions: in Phaseolus vulgaris, 96 h, read-out: corrected mortality (%), assessment
Description: Female adults of Frankliniella occidentalis were inoculated onto Phaseolus vulgaris leaf pieces, and after allowing them to lay eggs for one day, the female adults were removed. […] Four days after the treatment, the number of surviving larvae of this species larvae was examined.

Compound | inhibition at 100 µM [1] | mortality at 500 µg/mL [2] | mortality at 500 ppm [3] | mortality at 500 µg/mL [4]
O=C1CC(c2ccc(C(F)(F)F)cc2)CC(=O)C1=C(NCC(F)(F)F)Nc1ccc(F)cc1 (centres unmarked) [1-23] | ≥ 50% | 100% | – | –
COCCOC(=O)N1C(=O)C(=C(Nc2cccc(F)c2)Nc2cccc(F)c2)C(=O)CN1c1ccc(C#N)nc1 [6-6] | ≥ 50% | 100% | 100% | 100%
CSC(Nc1ccc(F)nc1)=C1C(=O)CC(c2cc(OC(F)F)n(C)n2)NC1=O (centres unmarked) [9-35] | ≥ 50% | 100% | 100% | 100%
CNC(Nc1ccc(F)cc1)=C1C(=O)CN(c2cnc(C#N)c(Br)c2)N(C)C1=O [6-47] | ≥ 50% | – | 100% | 100%
O=C1CC(c2ccc(C(F)(F)F)cc2)CC(=O)C1=C(Nc1ccc(F)nc1)Nc1cccnn1 (centres unmarked) [1-116] | ≥ 50% | 100% | – | –
CNC(Nc1ccc(F)cc1)=C1C(=O)CN(c2ccc(C#N)nc2)N(Cc2cnc(Cl)s2)C1=O [6-38] | ≥ 50% | – | – | 100%
CSC(Nc1ccc(F)nc1)=C1C(=O)CC(c2nc(-c3ccc(F)cc3)cs2)NC1=O (centres unmarked) [9-36] | ≥ 50% | 100% | 100% | 100%
CNC(Nc1ccc(F)cc1)=C1C(=O)CN(c2cnc(C#N)c(Br)c2)N(C(=O)OC)C1=O [6-20] | ≥ 50% | – | 100% | 100%
O=C1CC(c2ccc(C(F)(F)F)cc2)CC(=O)C1=C(Nc1ccc(F)cn1)Nc1ccc(F)cn1 (centres unmarked) [1-1] | ≥ 50% | 100% | – | –
O=C1CC(c2nc(-c3ccc(F)cc3)cs2)NC(=O)C1=C(Nc1ccc(F)nc1)Nc1ccc(F)nc1 (centres unmarked) [3-25] | ≥ 50% | 100% | – | –
CC(C)(C)OC(=O)N1CC(=O)C(=C(Nc2ccc(F)cn2)Nc2ccc(F)cn2)C(=O)C1 [compound No. 4-10, tertiary butyl 4-(bis((5-fluoropyridin-2-yl)amino)methylene)-3,5-dioxopiperidine-1-carboxylate] | – | – | 100% | –
CNC(Nc1ccc(F)cc1)=C1C(=O)CN(c2ccc(C#N)cn2)CC1=O [compound No. 4-1] | ≥ 50% | 100% | – | –
CNC(Nc1ccc(F)nc1)=C1C(=O)CC(c2nc(-c3ccc(F)cc3)cs2)NC1=O (centres unmarked) [3-23] | ≥ 50% | 100% | 100% | –
CNC(Nc1ccc(F)c(F)c1)=C1C(=O)CN(c2ccc(Br)nc2)N(C(=O)OC)C1=O [6-22] | ≥ 50% | – | 100% | –
O=C1CC(c2nc(-c3ccc(F)cc3)cs2)NC(=O)C1=C(Nc1ccc(F)cc1)Nc1ccc(F)nc1 (centres unmarked) [3-24] | ≥ 50% | 100% | – | –
CC(C)(C)ONC(Nc1ccc(F)cc1)=C1C(=O)CC(c2ccc(C(F)(F)F)cc2)CC1=O (centres unmarked) [1-38] | ≥ 50% | 100% | – | –
NC(Nc1ccc(F)cc1)=C1C(=O)CC(c2cnc(Cl)c(Br)c2)NC1=O (centres unmarked) [3-42] | ≥ 50% | 100% | 100% | –
CCOC(=O)N1C(=O)C(=C(NC)Nc2cccc(F)c2)C(=O)CN1c1ccc(C#N)c(Cl)c1 [6-30] | ≥ 50% | – | – | 100%

Compound | inhibition at 100 µM [1] | mortality at 500 µg/mL [2] | mortality at 500 ppm [3] | mortality at 500 µg/mL [4]
COCCOC(=O)N1C(=O)C(=C(Nc2ccc(OC)cc2)Nc2ccc(OC)cc2)C(=O)CN1c1ccc(C#N)nc1 [6-7] | ≥ 50% | – | 100% | –
COC(=O)N1C(=O)C(=C(Nc2ccc(F)cc2)Nc2ccc(F)cc2)C(=O)CN1c1ccc(C#N)nc1 [6-4] | ≥ 50% | – | 100% | 100%
O=C1CC(c2ccc(C(F)(F)F)cc2)CC(=O)C1=C(NCC(F)(F)F)NCC(F)(F)F (centres unmarked) [1-28] | ≥ 50% | 100% | – | –
CC1(C)C(=O)C(=C(Nc2ccc(F)cn2)Nc2ccc(F)cn2)C(=O)CC1c1ccc(Br)cn1 (centres unmarked) [1-45] | ≥ 50% | 100% | – | –
CSC(Nc1ccc(F)nc1)=C1C(=O)CC(c2ccc(C(F)(F)F)cc2)CC1=O (centres unmarked) [compound No. 9-1] | ≥ 50% | 100% | – | –
CC(C)(C)OC(=O)C1CC(=O)C(=C(Nc2ccc(F)cc2)Nc2ccc(F)nc2)C(=O)N1 (centres unmarked) [3-39] | ≥ 50% | 100% | – | –
CC1(C)C(=O)C(=C(Nc2ccc(F)cc2)Nc2ccc(F)cc2)C(=O)CC1c1ccc(Br)cn1 (centres unmarked) [1-44] | ≥ 50% | 100% | – | –
NC(Nc1ccc(F)cc1)=C1C(=O)CCCN(c2ccc(C(F)(F)F)cc2)C1=O [compound No. 5-1, 3-(amino((4-fluorophenyl)amino)methylene)-1-(4-(trifluoromethyl)phenyl)azepane-2,4-dione] | – | – | 100% | –
CC(C)(C)c1ccc(CSC(Nc2ccc(F)nc2)=C2C(=O)CC(c3cnc(Cl)c(Br)c3)NC2=O)cc1 (centres unmarked) [9-32] | ≥ 50% | 100% | 100% | –
CCCNC(Nc1ccc(F)cc1)=C1C(=O)CN(c2ccc(C#N)cn2)CC1=O [4-3] | ≥ 50% | 100% | – | –
CNC(Nc1ccc(F)cc1)=C1C(=O)CC(c2ccc(Br)cn2)CC1=O (centres unmarked) [1-10] | ≥ 50% | 100% | – | –
Cn1nc(C2CC(=O)C(=C(Nc3ccc(F)cc3)Nc3ccc(F)nc3)C(=O)N2)cc1OC(F)F (centres unmarked) [3-22] | ≥ 50% | 100% | 100% | –
COC(=O)N1C(=O)C(=C(NCC(F)F)Nc2ccc(F)cc2)C(=O)CN1c1ccc(C#N)nc1 [compound No. 6-15, methyl 2-(6-cyanopyridin-3-yl)-5-(((2,2-difluoroethyl)amino) ((4-fluorophenyl)amino)methylene)-4,6-dioxotetrahydropyridazine-1(2H)-carboxylate] | ≥ 50% | – | 100% | –
CNC(Nc1ccc(F)nc1)=C1C(=O)CC(c2ccc(C(F)(F)F)cc2)NC1=O (centres unmarked) [3-11] | ≥ 50% | 100% | 100% | –
O=C1CC(c2ccc(C(F)(F)F)cc2)CC(=O)C1=C(Nc1ccc(F)cc1)NC1CCOc2ccccc21 (centres unmarked) [1-69] | ≥ 50% | – | – | –
O=C1CC(c2ccc(C(F)(F)F)nc2)OC(=O)C1=C(Nc1ccc(F)nc1)Nc1ccc(F)nc1 (centres unmarked) [2-3] | ≥ 50% | – | – | –
C=CCNC(Nc1ccc(F)cc1)=C1C(=O)CC(c2cnc(C)o2)CC1=O (centres unmarked) [1-115] | ≥ 50% | 100% | – | –
